Reference: ChEMBL document CHEMBL1201862, “PubChem BioAssay data set” (2004)
Active and inactive are the calls of the source.

How the values were obtained:
[1] = molecular target: T1, Tyrosine-protein phosphatase non-receptor type 7 (Homo sapiens, UniProt P35236); assay: inhibitors of human HePTP phosphatase, […], biochemical, absorbance, leukemia target (AID 521); format: functional
T1 sequence (P35236 whole entry): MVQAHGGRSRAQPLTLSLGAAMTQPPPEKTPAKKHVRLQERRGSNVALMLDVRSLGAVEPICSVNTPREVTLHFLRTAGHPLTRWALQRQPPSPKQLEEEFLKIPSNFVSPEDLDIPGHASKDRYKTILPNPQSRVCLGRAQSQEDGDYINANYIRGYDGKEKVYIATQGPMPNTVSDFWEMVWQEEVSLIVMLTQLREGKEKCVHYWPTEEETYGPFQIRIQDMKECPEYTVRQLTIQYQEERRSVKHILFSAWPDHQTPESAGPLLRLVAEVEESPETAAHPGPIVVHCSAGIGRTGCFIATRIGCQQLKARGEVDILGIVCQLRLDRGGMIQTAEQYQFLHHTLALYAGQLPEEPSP

[2] = molecular target: T2, Ubiquitin carboxyl-terminal hydrolase BAP1 (Homo sapiens, UniProt Q92560); assay: BAP1 deubiquitinase inhibitors, dose response, biochemical (AID 714); format: functional
T2 sequence (Q92560 whole entry): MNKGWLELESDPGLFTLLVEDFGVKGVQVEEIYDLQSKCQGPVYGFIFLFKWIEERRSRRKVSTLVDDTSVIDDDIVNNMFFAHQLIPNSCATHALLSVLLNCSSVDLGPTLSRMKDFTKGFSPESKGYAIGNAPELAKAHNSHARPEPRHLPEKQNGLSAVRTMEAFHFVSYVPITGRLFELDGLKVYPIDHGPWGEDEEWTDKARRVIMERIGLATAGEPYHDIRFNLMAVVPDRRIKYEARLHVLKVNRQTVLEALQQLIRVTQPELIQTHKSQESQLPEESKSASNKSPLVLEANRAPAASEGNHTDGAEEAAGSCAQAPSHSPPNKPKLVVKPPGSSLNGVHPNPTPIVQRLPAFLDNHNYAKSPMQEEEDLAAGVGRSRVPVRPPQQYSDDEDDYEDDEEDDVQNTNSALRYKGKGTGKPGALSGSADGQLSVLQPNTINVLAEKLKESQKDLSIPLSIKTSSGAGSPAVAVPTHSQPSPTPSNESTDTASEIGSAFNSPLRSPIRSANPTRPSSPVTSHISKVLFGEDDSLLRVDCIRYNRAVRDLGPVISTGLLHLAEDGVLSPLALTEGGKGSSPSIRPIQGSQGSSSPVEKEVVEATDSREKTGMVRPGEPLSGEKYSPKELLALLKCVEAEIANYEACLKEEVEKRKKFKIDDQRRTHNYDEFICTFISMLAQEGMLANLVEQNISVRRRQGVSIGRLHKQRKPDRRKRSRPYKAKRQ

[3] = molecular target: T3, Estrogen receptor beta (Homo sapiens, UniProt Q92731); assay: ERβ–SRC-3 coactivator interaction inhibitors, confirmation, orthogonal assay, biochemical, ELISA, streptavidin-HRP readout (AID 1060)
[4] = molecular target: T3, Estrogen receptor beta
[5] = molecular target: T4, Oxysterols receptor LXR-beta (Homo sapiens, UniProt P55055); format: functional, cell-based;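 also: agonist activity at LXR measured by a cell-based luminescence readout across a dose range, run as a counterscreen for daf-12 agonists; HEK293 cells with Gal4-LXR fusion and GAL4-driven luciferase reporter; potency for activation of Gal4-LXR reporter so compounds are agonists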
T4 sequence (P55055 whole entry): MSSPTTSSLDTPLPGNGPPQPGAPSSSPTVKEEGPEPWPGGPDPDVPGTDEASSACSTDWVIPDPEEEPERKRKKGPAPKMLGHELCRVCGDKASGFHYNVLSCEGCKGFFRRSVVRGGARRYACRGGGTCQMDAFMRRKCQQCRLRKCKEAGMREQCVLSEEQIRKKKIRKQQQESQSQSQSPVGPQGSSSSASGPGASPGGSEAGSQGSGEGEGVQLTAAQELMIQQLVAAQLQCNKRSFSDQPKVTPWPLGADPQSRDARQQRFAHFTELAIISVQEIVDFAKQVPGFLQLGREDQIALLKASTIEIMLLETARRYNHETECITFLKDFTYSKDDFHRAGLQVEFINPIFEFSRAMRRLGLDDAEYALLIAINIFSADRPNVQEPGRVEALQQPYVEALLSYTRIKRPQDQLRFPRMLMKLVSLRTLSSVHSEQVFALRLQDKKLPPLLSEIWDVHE

[6] = molecular target: Prothrombin (Homo sapiens, UniProt P00734); assay: Thrombin 1536 HTS Dose Response Confirmation. [Related pubchem assays: 1046 (Thrombin 1536 HTS; hits were confirmed in this assay)]; format: functional
[7] = molecular target: G-protein coupled receptor 55 (Homo sapiens, UniProt Q9Y2T6); assay: GPR55 agonists via beta-arrestin recruitment, primary screen, imaging, U2OS cells, beta-arrestin-GFP redistribution (AID 1961); format: functional
[8] = molecular target: Paired box protein Pax-8 (Homo sapiens, UniProt Q06710); assay: inhibitors of PAX8-driven TPO luciferase reporter, dose response, RMG-I cells, cherry-pick (AID 687027); format: functional, cell-based;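 also: luciferase reporter driven by Pax8 target thyroperoxidase promoter measured by SteadyGlo luminescence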
[9] = cytotoxicity in OVCAR8 ovarian cancer cells, dose response, PAX8 project, cell-based, plate reader, dry powder samples (AID 743197); format: functional; details: OVCAR-8
[10] = NIH:OVCAR-3 ovarian cancer cell cytotoxicity, dose response, PAX8 inhibitor project, plate reader, dry powder samples (AID 743044); format: functional, cell-based
[11] = non-specific cell cytotoxicity, dose response, cytotoxicity control for PAX8 inhibitor project, plate reader, dry powder samples (AID 743021); format: functional, cell-based
[12] = Luminescence Cell-Based Dose Response HTS to Identify Inhibitors of 5'UTR Stem-Loop Driven Prion Protein mRNA Translation in H4 Neuroglioblastoma Cells. [Related pubchem assays: 1827 (Project Summary), 1813 (Primary HTS)]; format: functional
[13] = inhibitors of firefly luciferase expression or activity, dose response, H4 neuroglioma cells, luminescence (AID 1990); format: functional, cell-based
[14] = cytotoxicity in HEK-293T cells, dose response, cytotoxicity control for TCR NF-kB inhibitor project, luminescence, T-cell screen hits (AID 489026); format: functional, cell-based;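 also: cells exposed to compound about 14 hours before the viability readout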
[15] = inhibitors of SNCA 5'UTR-driven reporter translation, confirmation, H4 neuroglioma cells, luminescence (AID 1988); format: functional, cell-based

Sequence of Paired box protein Pax-8 (Q06710 whole entry): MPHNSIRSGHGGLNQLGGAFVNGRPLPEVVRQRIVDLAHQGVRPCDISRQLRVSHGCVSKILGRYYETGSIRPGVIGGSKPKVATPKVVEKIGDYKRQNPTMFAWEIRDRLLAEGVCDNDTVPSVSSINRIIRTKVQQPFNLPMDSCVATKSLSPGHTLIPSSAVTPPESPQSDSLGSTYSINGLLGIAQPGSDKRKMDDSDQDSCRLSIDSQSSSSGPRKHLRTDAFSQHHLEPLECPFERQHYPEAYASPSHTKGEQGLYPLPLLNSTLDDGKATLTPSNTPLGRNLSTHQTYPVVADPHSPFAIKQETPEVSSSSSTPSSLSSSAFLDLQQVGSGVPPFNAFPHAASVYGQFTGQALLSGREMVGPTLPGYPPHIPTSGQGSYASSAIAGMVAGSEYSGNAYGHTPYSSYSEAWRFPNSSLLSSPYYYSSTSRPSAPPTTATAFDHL
T3 sequence (Q92731 whole entry): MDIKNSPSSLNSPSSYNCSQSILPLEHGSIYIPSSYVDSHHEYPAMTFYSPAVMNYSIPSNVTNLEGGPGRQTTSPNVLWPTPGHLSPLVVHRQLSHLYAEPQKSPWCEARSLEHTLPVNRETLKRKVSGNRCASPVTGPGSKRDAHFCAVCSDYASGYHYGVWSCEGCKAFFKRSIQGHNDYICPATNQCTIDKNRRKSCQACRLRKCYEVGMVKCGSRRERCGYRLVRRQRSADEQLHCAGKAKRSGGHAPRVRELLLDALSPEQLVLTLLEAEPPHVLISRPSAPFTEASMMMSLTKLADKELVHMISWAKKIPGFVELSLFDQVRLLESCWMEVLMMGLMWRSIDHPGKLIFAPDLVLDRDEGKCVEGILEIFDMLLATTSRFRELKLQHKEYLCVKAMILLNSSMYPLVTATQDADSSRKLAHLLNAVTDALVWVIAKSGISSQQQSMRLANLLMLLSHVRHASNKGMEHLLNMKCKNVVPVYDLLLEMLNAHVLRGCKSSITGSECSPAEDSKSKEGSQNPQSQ
Sequence of G-protein coupled receptor 55 (Q9Y2T6 whole entry): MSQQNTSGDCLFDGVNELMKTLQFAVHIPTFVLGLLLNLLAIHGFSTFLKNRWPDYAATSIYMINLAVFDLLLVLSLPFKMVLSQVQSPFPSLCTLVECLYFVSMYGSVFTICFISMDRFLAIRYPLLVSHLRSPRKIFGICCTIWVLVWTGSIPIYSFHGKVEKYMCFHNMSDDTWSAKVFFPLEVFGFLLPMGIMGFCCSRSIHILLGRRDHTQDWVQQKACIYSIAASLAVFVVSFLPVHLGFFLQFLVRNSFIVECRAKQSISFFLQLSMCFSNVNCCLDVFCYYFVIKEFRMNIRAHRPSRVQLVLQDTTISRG

## OCCNc1ncnc2c1c(-c1ccccc1)c(-c1ccccc1)n2Cc1ccco1
[1]
  IC50: > 100 µM (not active)

## CCOC(=O)c1cnc(SCC(=O)Nc2sc(C)c(C)c2C#N)nc1N
[2]
  IC50: 18.7 µM (active)

## CC(C)C(OC(=O)c1cccs1)C(=O)NCc1ccco1 (stereo not drawn)
[1]
  IC50: > 100 µM (not active)

## O=c1c2cc(N3CCOCC3)ccc2[nH]c(=S)n1Cc1ccco1
[3]
  IC50: 6.02 µM (not active)
[4]
  IC50: > 50 µM (not active)

## CC(C)C[C@H](NC(=O)OCC1c2ccccc2-c2ccccc21)C(=O)O
[5]
  EC50: > 67.5 µM (inactive)

## CC1CCc2[nH]nc(C(=O)O)c2C1 (stereo not drawn)
[6]
  IC50: > 50 µM (not active)

## O=C(NCc1ccco1)c1cc2nc(-c3ccc4c(c3)OCO4)cc(C(F)(F)F)n2n1
[7]
  EC50: > 32 µM (inactive)
[2]
  IC50: 20.4 µM (active)

## COc1ccc(N2C(=O)CSC2c2cccc(OC)c2OC)cc1 (stereo not drawn)
[6]
  IC50: > 50 µM (not active)

## C[C@@H]1CN([C@@H](C)CO)C(=O)c2cc(NC(=O)Nc3ccc(F)cc3)ccc2O[C@@H](C)CCCCO[C@H]1CN(C)Cc1ccc(C(F)(F)F)cc1
[8]
  AC50: 6.74 µM (active)
[9]
  AC50: 51.7 µM (active)
[10]
  AC50: 16.3 µM (active)
[11]
  AC50: 1.84 µM (active)

## C[C@H](CO)N1C[C@H](C)[C@H](CN(C)S(=O)(=O)c2ccc(Cl)cc2)OCCCC[C@H](C)Oc2ccc(NC(=O)Nc3ccc(C(F)(F)F)cc3)cc2C1=O
[8]
  AC50: 4.52 µM (active)
[10]
  AC50: 60 µM (active)
[11]
  AC50: 34.6 µM (active)

## COc1ccc(/C=c2/sc3n(c2=O)C(c2ccccc2OC)C2=C(N=3)c3ccccc3CC2)cc1O (stereo not drawn)
[8]
  AC50: 2.28 µM (active)
[12]
  EC50: 13.9 µM (active)
[13]
  EC50: 0.112 µM (active)
[14]
  IC50: > 80 µM (inactive)
[15]
  EC50: 0.403 µM (active)
[11]
  AC50: 52 µM (active)
